The NIST ThermoML archive (doi:10.1021/je500079y)

Details: 101.33 kPa, Liquid, Vibrating tube method

CCOS(=O)(=O)[O-].CCn1cc[n+](C)c1 [1-ethyl-3-methylimidazolium ethyl sulfate]
Details | mass density [kg/m3]
278.15 K | 1250.01
283.15 K | 1246.61
288.15 K | 1243.14
293.15 K | 1239.68
298.15 K | 1236.24
303.15 K | 1232.82
308.15 K | 1229.42
313.15 K | 1226.03
318.15 K | 1222.66
323.15 K | 1219.3
328.15 K | 1215.96
333.15 K | 1212.63
338.15 K | 1209.31
343.15 K | 1206.01
